In patent US20220324835A1 (Nurix Therapeutics, Inc., priority 2018, published 2022):

Key:
Format in all cases: cell-based
[1] = test system: primary human total T-cells; assay: T-cell activation assessed by cell proliferation (Cell Trace Violet)
From the text: (§1) Peripheral blood mononuclear cells (PBMC) were obtained either: 1) by using Ficoll-Paque™ (GE Healthcare) for separation of peripheral blood hematopoietic cells from buffy coats of healthy human donors; or 2) directly from FeukoPak donations. Total human primary T-cells were isolated from the PMBCs utilizing negative selection with commercial kits following the manufacturer's protocol (Miltenyi Catalog #130-096-535 (i.e., cocktail of antibodies against surface markers CD14, CD15, CD16, CD19, CD34, CD36, CD56, CD123 and CD235a are incubated with the PBMCs before passing the samples by magnetic beads for removal of cells expressing those surface markers) or StemCells Catalog #17951) to yield >95% CD3+ cells as assessed by flow cytometry. For measurement of cell proliferation, cells were labeled with Cell Trace Violet (Invitrogen) following manufacturer's protocol prior to activation by stimulation with anti-CD3 antibody alone or in combination with anti-CD28 antibody. The Cbl-b inhibitor was added to 1×10^5 cells per well at multiple concentrations (e.g., 10 μM, 1.11 μM, or 0.123 μM) with a final DMSO concentration of <0.1%. The plate was incubated for one hour at 37° C. in 5% CO2. Following incubation with the Cbl-b inhibitor, primary human total T-cells were stimulated with either plate bound anti-CD3 antibody (OKT3) alone or plate bound anti-CD3 antibody (OKT3) with soluble anti-CD28 antibody (28.2) (Life Technologies). To prepare plates with plate bound anti-CD3 antibody (OKT3), 96-well round bottom tissue culture plates were coated with 100 μl of anti-CD3 antibody (OKT3) at 10 μg/mL for 4 hours at 37° C. 5% CO2 in phosphate buffered saline (PBS). The plates were washed with PBS prior to adding the cells with or without soluble anti-CD28 antibody (28.2) to each well at a final concentration of 5 μg/mL. Cells were stimulated for 48 hours prior to harvesting the cell free supernatant and staining the cell population for surface marker assessment by flow cytometry. Supernatants were analyzed for cytokine secretion (e.g., GM-CSF, IFNγ and TNFα) by ELISA (R&D Systems, Peprotech or Life Technologies) or Luminex multiplex kits (Procarta Life Technologies) following manufacturer's protocol. Cells were stained with anti-CD69 (BD Biosciences) to assess levels of surface markers of activation. Proliferation was measured by flow cytometry and data was analyzed with FlowJo v7.6.5 or v10. Readouts were reported as fold change over baseline. In some embodiments, baseline was the measurement obtained from total human T-cells stimulated with anti-CD3 antibody alone, wherein the cells were not incubated with a Cbl-b inhibitor. In some embodiments, baseline was the measurement obtained from total human T-cells stimulated with anti-CD3 antibody and anti-CD28 antibody, where the cells were not incubated with a Cbl-b inhibitor.
(§2) Cbl-b inhibitors were tested to determine their ability to induce or enhance secretion of cytokines from T-cells (e.g., GM-CSF, IFNγ and TNFα) and/or surface expression of cell surface markers on T-cells (e.g., CD69) that is indicative of T-cell activation. Cbl-b inhibitors were also tested to determine their ability to induce or enhance T-cell proliferation. Cbl-b inhibitors were tested for their effects on T-cell activation in the presence of costimulation and where conditions were suboptimal for priming.
(§3) Readouts for T-cell activation were reported as fold change over baseline. Baseline for this study was the measurement obtained from total human T-cells stimulated with anti-CD3 antibody alone or anti-CD3 antibody in combination with soluble anti-CD28 antibody, where the cells were not incubated with a Cbl-b inhibitor. For T-cells stimulated with anti-CD3/anti-CD28 or with anti-CD3 alone changes greater than 1,2-fold over baseline for % positive CD69 staining and greater than 2-fold over baseline for % total proliferating cells were considered a significant and positive response (Table 4a). […]

[2] = test system: primary human total T-cells; assay: T-cell activation assessed by CD69 expression
From the text: as §1, §2, §3

[3] = test system: primary human total T-cells; assay: T-cell activation assessed by cytokine secretion (GM-CSF, IFNγ, TNFα)
From the text: as §1, §2, §3

[4] = CD3/CD28 stimulation, CD4 T-cells, read-out: % CP (cell proliferation) (CD4)
[5] = CD3/CD28 stimulation, CD8 T-cells, read-out: % CP (cell proliferation) (CD8)
[6] = CD3 alone stimulation, CD8 T-cells, read-out: % CP (cell proliferation) (CD8)
[7] = CD3/CD28 stimulation, CD4 T-cells, read-out: % CD69+ (CD4)
[8] = CD3/CD28 stimulation, CD8 T-cells, read-out: % CD69+ (CD8)
[9] = CD3 alone stimulation, CD4 T-cells, read-out: % CD69+ (CD4)
[10] = CD3 alone stimulation, CD8 T-cells, read-out: % CD69+ (CD8)
[11] = CD3/CD28 stimulation, read-out: GM-CSF secretion
[12] = CD3/CD28 stimulation, read-out: IFNγ secretion
[13] = CD3/CD28 stimulation, read-out: TNFα secretion
[14] = CD3 alone stimulation, read-out: GM-CSF secretion
[15] = CD3 alone stimulation, read-out: IFNγ secretion
[16] = CD3 alone stimulation, read-out: TNFα secretion

| Structure (SMILES) | fold induction at 1.11 µM [1, 4] | fold induction at 10 µM [1, 4] | fold induction at 1.11 µM [1, 5] | fold induction at 10 µM [1, 5] | fold induction at 1.11 µM [1, 6] | fold induction at 10 µM [1, 6] | fold induction at 1.11 µM [2, 7] | fold induction at 10 µM [2, 7] | fold induction at 1.11 µM [2, 8] | fold induction at 10 µM [2, 8] | fold induction at 1.11 µM [2, 9] | fold induction at 10 µM [2, 9] | fold induction at 1.11 µM [2, 10] | fold induction at 10 µM [2, 10] | fold induction at 1.11 µM [3, 11] | fold induction at 1.11 µM [3, 12] | fold induction at 1.11 µM [3, 13] | fold induction at 10 µM [3, 11] | fold induction at 10 µM [3, 12] | fold induction at 10 µM [3, 13] | further results |
| --- | --- | --- | --- | --- | --- | --- | --- | --- | --- | --- | --- | --- | --- | --- | --- | --- | --- | --- | --- | --- | --- |
| C[C@H](Cc1nncn1C)c1cccc(N2Cc3c(cc(CN4CC[C@](C)(O)C4)cc3C(F)(F)F)C2=O)c1 [Compound 398, 6-(((S)-3-hydroxy-3-methylpyrrolidin-1-yl)methyl)-2-(3-((R)-1-(4-methyl-4H-1,2,4-triazol-3-yl)propan-2-yl)phenyl)-4-(trifluoromethyl)isoindolin-1-one] | > 4 | > 4 | 3.01 to 4 | > 4 | > 4 | > 4 | 1.4 to 1.6 | 1.4 to 1.6 | 1.2 to 1.4 | 1.2 to 1.4 | > 1.6 | > 1.6 | 1.2 to 1.4 | 1.4 to 1.6 | 2.01 to 4 | 3.01 to 4 | 2.01 to 4 | > 4 | > 4 | 2.01 to 4 | fold induction at 1.11 µM [3, 14]: 2.01 to 4; fold induction at 1.11 µM [3, 15]: < 2; fold induction at 1.11 µM [3, 16]: ≤ 1.5; fold induction at 10 µM [3, 14]: > 4; fold induction at 10 µM [3, 15]: < 2; fold induction at 10 µM [3, 16]: 2.01 to 4 |
| C[C@H](Cc1nncn1C)c1cccc(N2Cc3c(cc(CN4CC[C@H](F)C4)cc3C(F)(F)F)C2=O)c1 [Compound 399, 6-(((S)-3-fluoropyrrolidin-1-yl)methyl)-2-(3-((R)-1-(4-methyl-4H-1,2,4-triazol-3-yl)propan-2-yl)phenyl)-4-(trifluoromethyl)isoindolin-1-one] | > 4 | > 4 | > 4 | > 4 | > 4 | > 4 | > 1.6 | > 1.6 | 1.2 to 1.4 | 1.2 to 1.4 | > 1.6 | > 1.6 | 1.4 to 1.6 | 1.4 to 1.6 | > 4 | > 4 | 2.01 to 4 | > 4 | > 4 | 2.01 to 4 | fold induction at 1.11 µM [3, 14]: 2.01 to 4; fold induction at 1.11 µM [3, 15]: 3.01 to 4; fold induction at 1.11 µM [3, 16]: 2.01 to 4; fold induction at 10 µM [3, 14]: > 4; fold induction at 10 µM [3, 15]: > 4; fold induction at 10 µM [3, 16]: 1.51 to 2 |
| C[C@@H](c1cc2c(c(C(F)(F)F)c1)CN(c1cccc(C3(Cc4nncn4C)COC3)c1)C2=O)N1CC[C@H](F)C1 [Compound 412, 6-((S)-1-((S)-3-fluoropyrrolidin-1-yl)ethyl)-2-(3-(3-((4-methyl-4H-1,2,4-triazol-3-yl)methyl)oxetan-3-yl)phenyl)-4-(trifluoromethyl)isoindolin-1-one] | > 4 | > 4 | > 4 | > 4 | > 4 | > 4 | 1.4 to 1.6 | 1.4 to 1.6 | 1.2 to 1.4 | 1.2 to 1.4 | > 1.6 | > 1.6 | 1.4 to 1.6 | 1.4 to 1.6 | > 4 | > 4 | 2.01 to 4 | > 4 | > 4 | > 4 | fold induction at 1.11 µM [3, 14]: > 4; fold induction at 1.11 µM [3, 15]: 3.01 to 4; fold induction at 1.11 µM [3, 16]: 1.51 to 2; fold induction at 10 µM [3, 14]: > 4; fold induction at 10 µM [3, 15]: > 4; fold induction at 10 µM [3, 16]: 2.01 to 4 |
